Experimental data as given in patent US4371537A, “Sulfur-substituted phenoxypyridines having antiviral activity” (The Dow Chemical Company, priority 1981, dated 1983).
In brackets after ≈: the same amount, converted by molar mass. One block for each compound: values may come before it.

Assays:
[1] = tested on: RV-1A, RV-2 or Cox A21; test: Summary of HeLa tissue culture testing against the test viruses; assay type: cell-based, rhinovirus types 1A and 2, Coxsackie A21 virus; details: for antiviral activity in tissue culture: active on RV-1A and RV-2 at a test concentration equivalent to the cytotoxic concentration
Experimental: (§1) Monolayered HeLa cells in 16 millimeter (mm) tissue culture dishes were treated with 1 ml of culture medium (Eagles medium supplemented with fetal calf serum) containing subject compound at an appropriate concentration or containing no compound at all. Culture media such as those described herein are more fully described in standard texts, as for example, Kuchler's Biochemical Methods in Cell Culture and Virology, Dowden, Hutchinson and Ross, Inc., Stroudsberg, PA (1977). Following treatment, cells were challenged with 0.05 ml of rhinovirus type 1A (RV-1A), rhinovirus type 2 (RV-2) or Coxsackie A21 virus (Cox A21) in culture medium. Some of the compounds were also tested against rhinovirus type 5 (RV-5), rhinovirus type 8 (RV-8) or rhinovirus type 64 (RV-64). Cell controls received no viruses.

[2] = tested on: Rhinovirus Type 17; test: Inhibition of cytopathic effect in WI-38 cell culture tubes, rhinovirus type 17; assay type: cell-based; details: Enterovirus; 25 μg/ml; WI-38 cells; read-out: Inhibition grade, Rhinovirus Type 17
Experimental: (§2) The test compound was dissolved in an appropriate solvent (generally dimethyl sulfoxide) and incubated at 56° C. for at least 15 minutes and this solution was then used to prepare various test solutions having the desired concentration of test compound in preheated WI maintenance medium (49% Eagles, 49% medium 199, 2% fetal calf serum and antibiotics).
(§3) Triplicate cell culture tubes (WI-38 human embryonic lung cell culture tubes) were fed with 1 ml of medium containing the compound at specified concentrations and inoculated with 3-300 TCID50 (3-300 times the tissue culture infective dose 50, i.e., the dose required to infect 50% of the cell cultures tested). Simultaneous viral titrations were performed. The tissue cultures were supplemented with fresh medium when necessary (around 3-4 days) until viral titrations were completed.
(§4) The cell culture tubes were examined dialy for cytopathic effect. […] Comparisons were made at that time with the percentage of cell sheet destruction in tubes containing virus compound mixtures. Observed differences of 75% or more were graded "+", 74-50% as "±", and less than 50% as "-" inhibition.

[3] = tested on: Rhinovirus Type 74; test: Inhibition of cytopathic effect in WI-38 cell culture tubes, rhinovirus type 74; assay type: cell-based; details: Enterovirus; 25 μg/ml; WI-38 cells; read-out: Inhibition grade, Rhinovirus Type 74
Experimental: as §2, §3, §4

[4] = Cytotoxicity in tissue culture testing (HeLa monolayers); assay type: cell-based; details: human; HeLa cells; observed at 48 and 72 hours post-treatment; read-out: Cytotoxicity: concentration of the compound found to be toxic to the cell
Method in brief: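 HeLa monolayers treated with compound in Eagle's medium with fetal calf serum, then challenged with rhinovirus (RV-1A, RV-2, some RV-5, RV-8, RV-64) or Coxsackie A21. Untreated and virus-free cell controls included.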

[5] = tested on: Rhinovirus Type 68; test: Inhibition of cytopathic effect in WI-38 cell culture tubes, rhinovirus type 68; assay type: cell-based; details: Enterovirus; 25 μg/ml; WI-38 cells; read-out: Inhibition grade, Rhinovirus Type 68
Experimental: as §2, §3, §4

[6] = tested on: Rhinovirus Type 59; test: Inhibition of cytopathic effect in WI-38 cell culture tubes, rhinovirus type 59; assay type: cell-based; details: Enterovirus; 25 μg/ml; WI-38 cells; read-out: Inhibition grade, Rhinovirus Type 59
Experimental: as §2, §3, §4

[7] = tested on: Rhinovirus Type 6; test: Inhibition of cytopathic effect in WI-38 cell culture tubes, rhinovirus type 6; assay type: cell-based; details: Enterovirus; 25 μg/ml; WI-38 cells; read-out: Inhibition grade, Rhinovirus Type 6
Experimental: as §2, §3, §4

[8] = tested on: Rhinovirus Type 64; test: Inhibition of cytopathic effect in WI-38 cell culture tubes, rhinovirus type 64; assay type: cell-based; details: Enterovirus; 25 μg/ml; WI-38 cells; read-out: Inhibition grade, Rhinovirus Type 64
Experimental: as §2, §3, §4

[9] = tested on: Rhinovirus Type 13; test: Inhibition of cytopathic effect in WI-38 cell culture tubes, rhinovirus type 13; assay type: cell-based; details: Enterovirus; 25 μg/ml; WI-38 cells; read-out: Inhibition grade, Rhinovirus Type 13
Experimental: as §2, §3, §4

[10] = tested on: Rhinovirus Type 75; test: Inhibition of cytopathic effect in WI-38 cell culture tubes, rhinovirus type 75; assay type: cell-based; details: Enterovirus; 25 μg/ml; WI-38 cells; read-out: Inhibition grade, Rhinovirus Type 75
Experimental: as §2, §3, §4

[11] = tested on: Rhinovirus Type 58; test: Inhibition of cytopathic effect in WI-38 cell culture tubes, rhinovirus type 58; assay type: cell-based; details: Enterovirus; 25 μg/ml; WI-38 cells; read-out: Inhibition grade, Rhinovirus Type 58
Experimental: as §2, §3, §4

[12] = tested on: Cox A21; test: Single Oral Dose test in mice challenged IP with Cox A21; assay type: in vivo, Swiss male mice; details: 600 mg/kg P.O. 3 h after IP challenge; >3.84 significant (95% confidence level)
Method in brief: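 Swiss male mice (8-12 g) infected IP with a lethal Cox A21 dose (80-100% mortality within 10 days), then given a single oral dose of compound in 0.5% Methocel 3 h later. Deaths recorded daily for 7-10 days; modified Mantel-Haenzel chi-square versus virus controls, >3.84 significant.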

[13] = tested on: Rhinovirus Type 60; test: Inhibition of cytopathic effect in WI-38 cell culture tubes, rhinovirus type 60; assay type: cell-based; details: Enterovirus; 25 μg/ml; WI-38 cells; read-out: Inhibition grade, Rhinovirus Type 60
Experimental: as §2, §3, §4

[14] = tested on: rhinovirus type 1A (RV-1A); test: Tissue culture testing, rhinovirus type 1A in HeLa cells; assay type: cell-based; details: Enterovirus, 48 and 72 hours, NA = not active at the standard test conditions, read-out: RV-1A: lowest concentration of the compound necessary to cause a 50 percent reduction in cytopathic effect
Method in brief: (§5)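 Monolayer HeLa cells were pretreated with compound in Eagle's medium with fetal calf serum, then challenged with virus in medium. Untreated and uninfected controls were run. Values are the lowest compound concentration (μg/ml) needed for the scored effect.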

[15] = tested on: Rhinovirus Type 39; test: Inhibition of cytopathic effect in WI-38 cell culture tubes, rhinovirus type 39; assay type: cell-based; details: Enterovirus; 25 μg/ml; WI-38 cells; read-out: Inhibition grade, Rhinovirus Type 39
Experimental: as §2, §3, §4

[16] = tested on: Rhinovirus Type 19; test: Inhibition of cytopathic effect in WI-38 cell culture tubes, rhinovirus type 19; assay type: cell-based; details: Enterovirus; 25 μg/ml; WI-38 cells; read-out: Inhibition grade, Rhinovirus Type 19
Experimental: as §2, §3, §4

[17] = tested on: Coxsackie A21 virus (Cox A21); test: Tissue culture testing, Coxsackie A21 virus in HeLa cells; assay type: cell-based; details: 48 and 72 hours, NA = not active at the standard test conditions, read-out: Cox A21: lowest concentration of the compound necessary to cause a 50 percent reduction in cytopathic effect
Method in brief: as §5

[18] = tested on: Rhinovirus Type 21; test: Inhibition of cytopathic effect in WI-38 cell culture tubes, rhinovirus type 21; assay type: cell-based; details: Enterovirus; 25 μg/ml; WI-38 cells; read-out: Inhibition grade, Rhinovirus Type 21
Experimental: as §2, §3, §4

[19] = tested on: rhinovirus type 5 (RV-5); test: Tissue culture testing, rhinovirus type 5 in HeLa cells; assay type: cell-based; details: Enterovirus, 48 and 72 hours, NA = not active at the standard test conditions, read-out: RV-5: lowest concentration of the compound necessary to cause a 50 percent reduction in cytopathic effect
Experimental: as §1
(§6) ^2 Lowest concentration of the compound (μg/ml) necessary to cause

[20] = tested on: Rhinovirus Type 29; test: Inhibition of cytopathic effect in WI-38 cell culture tubes, rhinovirus type 29; assay type: cell-based; details: Enterovirus; 25 μg/ml; WI-38 cells; read-out: Inhibition grade, Rhinovirus Type 29
Experimental: as §2, §3, §4

[21] = tested on: rhinovirus type 2 (RV-2); test: Tissue culture testing, rhinovirus type 2 in HeLa cells; assay type: cell-based; details: Enterovirus, 48 and 72 hours, NA = not active at the standard test conditions, read-out: RV-2: lowest concentration of the compound necessary to cause a 50 percent reduction in cytopathic effect
Method in brief: as §5

[22] = tested on: rhinovirus type 8 (RV-8); test: Tissue culture testing, rhinovirus type 8 in HeLa cells; assay type: cell-based; details: Enterovirus, 48 and 72 hours, NA = not active at the standard test conditions, read-out: RV-8: lowest concentration of the compound necessary to cause a 50 percent reduction in cytopathic effect
Experimental: as §1, §6

[23] = tested on: Hanks Untyped; test: Inhibition of cytopathic effect in WI-38 cell culture tubes, Hanks Untyped; assay type: cell-based, rhinovirus; details: Enterovirus; 25 μg/ml; WI-38 cells; read-out: Inhibition grade, Hanks Untyped
Experimental: as §2, §3, §4

[24] = tested on: Rhinovirus Type 10; test: Inhibition of cytopathic effect in WI-38 cell culture tubes, rhinovirus type 10; assay type: cell-based; details: Enterovirus; 25 μg/ml; WI-38 cells; read-out: Inhibition grade, Rhinovirus Type 10
Experimental: as §2, §3, §4

[25] = tested on: Rhinovirus Type 56; test: Inhibition of cytopathic effect in WI-38 cell culture tubes, rhinovirus type 56; assay type: cell-based; details: Enterovirus; 25 μg/ml; WI-38 cells; read-out: Inhibition grade, Rhinovirus Type 56
Experimental: as §2, §3, §4

[26] = tested on: Rhinovirus Type 81; test: Inhibition of cytopathic effect in WI-38 cell culture tubes, rhinovirus type 81; assay type: cell-based; details: Enterovirus; 25 μg/ml; WI-38 cells; read-out: Inhibition grade, Rhinovirus Type 81
Experimental: as §2, §3, §4

[27] = tested on: Rhinovirus Type 8; test: Inhibition of cytopathic effect in WI-38 cell culture tubes, rhinovirus type 8; assay type: cell-based; details: Enterovirus; 25 μg/ml; WI-38 cells; read-out: Inhibition grade, Rhinovirus Type 8
Experimental: as §2, §3, §4

[28] = tested on: Rhinovirus Type 4; test: Inhibition of cytopathic effect in WI-38 cell culture tubes, rhinovirus type 4; assay type: cell-based; details: Enterovirus; 25 μg/ml; WI-38 cells; read-out: Inhibition grade, Rhinovirus Type 4
Experimental: as §2, §3, §4

[29] = tested on: Coxsackie A21 virus; test: Continuous Oral Feeding test in mice challenged IP with Coxsackie A21 virus; assay type: in vivo; details: po, 0.06 % in diet, 240 h
Method in brief: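 Mice (8 to 12 g) fed rodent chow containing 0.06% (weight percent) test compound from day 0, challenged IP on day 1 with 0.2 ml HeLa-grown virus at a dose giving 80 to 100% deaths within 10 days. Deaths recorded over 10 days versus controls; chi-square test, values >3.84 taken as active (95% confidence).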

SMILES: CCS(=O)(=O)c1cccnc1Oc1ccc(Cl)c(Cl)c1 [2-(3,4-dichlorophenoxy)-3-(ethylsulfonyl)pyridine]
antiviral activity in tissue culture [1]: only marginally active

SMILES: CS(=O)(=O)c1cccc(Oc2ccc(Br)cc2)n1 [2-(4-bromophenoxy)-6-(methylsulfonyl)pyridine]
antiviral activity in tissue culture [1]: only marginally active

SMILES: CS(=O)(=O)c1ccc(Oc2ccc(Cl)c(Cl)c2)nc1 [Example 40, 2-(3,4-dichlorophenoxy)-5-(methylsulfonyl)pyridine]
inhibition at 25 µg/mL [2]: ≥ 75%
inhibition at 25 µg/mL [3]: ≥ 75%
MCC [4]: 50 µg/mL
inhibition at 25 µg/mL [5]: ≥ 75%
inhibition at 25 µg/mL [6]: 50 to 74%
inhibition at 25 µg/mL [7]: < 50%
inhibition at 25 µg/mL [8]: ≥ 75%
inhibition at 25 µg/mL [9]: ≥ 75%
inhibition at 25 µg/mL [10]: < 50%
inhibition at 25 µg/mL [11]: ≥ 75%
Single Oral Dose X^2 (chi-square, deaths vs virus control) [12]: 22.807
inhibition at 25 µg/mL [13]: 50 to 74%
EC50 [14]: ≤ 0.31 µg/mL
inhibition at 25 µg/mL [15]: ≥ 75%
inhibition at 25 µg/mL [16]: ≥ 75%
EC50 [17]: ≤ 6.25 µg/mL
inhibition at 25 µg/mL [18]: ≥ 75%
EC50 [19]: 25 µg/mL (≈ 78.6 µM)
inhibition at 25 µg/mL [20]: ≥ 75%
EC50 [21]: 0.625 µg/mL (≈ 1.96 µM)
EC50 [22]: ~12.5 µg/mL (≈ 39.3 µM)
inhibition at 25 µg/mL [23]: ≥ 75%
inhibition at 25 µg/mL [24]: ≥ 75%
inhibition at 25 µg/mL [25]: ≥ 75%
inhibition at 25 µg/mL [26]: ≥ 75%
inhibition at 25 µg/mL [27]: < 50%
inhibition at 25 µg/mL [28]: < 50%

SMILES: CC(C)S(=O)(=O)c1ccc(Oc2ccc(C(=O)c3ccccc3)cc2)nc1 [Example 51]
MCC [4]: 4 µg/mL
antiviral activity in initial tissue culture testing ([1]; initial test): did not show activity against the test viruses
antiviral activity on retest ([1]; retest (data in Table 3), RV-1A and RV-2): did show activity against RV-1A and RV-2
Single Oral Dose X^2 (chi-square, deaths vs virus control) [12]: 3.085
EC50 [14]: 4 µg/mL (≈ 10.5 µM)
Continuous Oral Feeding X^2 (chi-square, deaths vs control) [29]: 17.705
EC50 [21]: 2 µg/mL (≈ 5.24 µM)

EC50 [14]: 50 µg/mL (≈ 136 µM)
EC50 [21]: ~50 µg/mL (≈ 136 µM)
SMILES: CCS(=O)(=O)c1cccnc1Oc1ccc(C(=O)c2ccccc2)cc1 [Example 74]
MCC [4]: 50 µg/mL
antiviral activity in tissue culture [1]: only marginally active
